Assay results reported in patent publication US11306078B2, “Piperidine CXCR7 receptor modulators” (IDORSIA PHARMACEUTICALS LTD., priority 2016, dated 2022).

Biological target: human chemokine receptor CXCR7 (Homo sapiens (Human), UniProt P25106)
Assay: Tango CXCR7-bla U2OS beta-arrestin recruitment assay (beta-lactamase reporter, FRET), antagonism of CXCL12/SDF1-α;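 note: compounds preincubated 15 min before CXCL12 addition, then 22 h at 37 °C, FRET emission ratio read with CCF4-AM substrate after 2 h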
Type: cell-based
Settings: antagonistic effect on CXCR7; Tango CXCR7-bla U2OS cells, CXCL12/SDF1-α at its EC80

Chain of human chemokine receptor CXCR7 (P25106 whole entry): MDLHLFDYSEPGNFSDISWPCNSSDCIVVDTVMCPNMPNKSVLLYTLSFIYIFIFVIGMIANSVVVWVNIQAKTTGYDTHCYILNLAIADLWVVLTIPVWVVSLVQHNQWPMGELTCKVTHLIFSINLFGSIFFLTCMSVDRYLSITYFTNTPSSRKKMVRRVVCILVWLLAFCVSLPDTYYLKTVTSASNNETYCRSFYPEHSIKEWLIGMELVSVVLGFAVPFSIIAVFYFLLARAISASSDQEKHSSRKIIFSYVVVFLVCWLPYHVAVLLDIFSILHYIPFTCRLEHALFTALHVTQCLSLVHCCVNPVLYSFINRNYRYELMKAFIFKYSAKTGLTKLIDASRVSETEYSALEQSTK

CN(C)C(=O)[C@@H]1CN(CCC(C)(C)C)CC[C@H]1NC(=O)c1cc(-c2ccc(F)cc2F)on1 [Example 2.022]
IC50: 155 nM

C[C@@H](NC(=O)[C@@H]1CN(C2CCCC2)CC[C@H]1NC(=O)c1cc(-c2c(F)cc(F)cc2F)on1)c1cnccn1 [Example 1.13]
IC50: 140 nM

CC(C)N1CC[C@@H](NC(=O)c2cc(-c3ccc(F)cc3F)on2)[C@H](C(=O)N(C)C)C1 (racemic) [Example 2.001, rac-(3R*,4R*)-4-{[5-(2,4-Difluoro-phenyl)-isoxazole-3-carbonyl]-amino}-1-isopropyl-piperidine-3-carboxylic Acid Dimethylamide]
IC50: 209 nM

O=C(N[C@@H]1CCN(CC2CC2)C[C@H]1C(=O)NC1(c2ccccn2)CC1)c1cc(-c2c(F)cc(F)cc2F)on1 (single isomer, unassigned) [Example 1.171a, (3R*,4R*)-1-Cyclopropylmethyl-4-{[5-(2,4,6-trifluoro-phenyl)-isoxazole-3-carbonyl]-amino}-piperidine-3-carboxylic acid (1-pyridin-2-yl-cyclopropyl)-amide]
IC50: 7 nM

O=C(N[C@@H]1CCN(C2CCC2)C[C@H]1C(=O)NC1(c2ccc(F)cc2)COC1)c1cc(-c2ccc(F)cc2F)on1 [Example 4.089]
IC50: 299 nM

CC(C)(CS(C)(=O)=O)NC(=O)[C@@H]1CN(C2CCCCC2)CC[C@H]1NC(=O)c1cc(-c2ccc(F)cc2F)on1 (racemic) [Example 1.081, rac-(3R*,4R*)-1-Cyclohexyl-4-{[5-(2,4-difluoro-phenyl)-isoxazole-3-carbonyl]-amino}-piperidine-3-carboxylic acid (2-methanesulfonyl-1,1-dimethyl-ethyl)-amide]
IC50: 118 nM

O=C(N[C@H]1CCN(CC2CC2)C[C@@H]1C(=O)NC1(c2ccccn2)CC1)c1nnc(-c2ccc(F)cc2F)o1 (single isomer, unassigned) [Example 3.016a, (3S,4S)-1-Cyclopropylmethyl-4-{[5-(2,4-difluoro-phenyl)-[1,3,4]oxadiazole-2-carbonyl]-amino}-piperidine-3-carboxylic acid (1-pyridin-2-yl-cyclopropyl)-amide or (3R,4R)-1-Cyclopropylmethyl-4-{[5-(2,4-difluoro-phenyl)-[1,3,4]oxadiazole-2-carbonyl]-amino}-piperidine-3-carboxylic acid (1-pyridin-2-yl-cyclopropyl)-amide]
IC50: 90 nM

CN(C)C(=O)[C@@H]1CN(CC2CC2)CC[C@H]1NC(=O)c1cc(-c2c(F)cc(F)cc2F)on1 [Example 1.1]
IC50: 128 nM

O=C(N[C@@H]1CCN(C2CCCCC2)C[C@H]1C(=O)NC1(c2ccccn2)CC1)c1cn(-c2ccc(F)cc2F)nn1 (single isomer, unassigned) [Example 1.165a, (3R*,4R*)-1-Cyclohexyl-4-{[1-(2,4-difluoro-phenyl)-1H-[1,2,3]triazole-4-carbonyl]-amino}-piperidine-3-carboxylic acid (1-pyridin-2-yl-cyclopropyl)-amide]
IC50: 43 nM

C[C@@H](NC(=O)[C@H]1CN(C2CCCCC2)CC[C@@H]1NC(=O)c1cc(-c2ccc(F)cc2F)no1)c1ccccn1 (single isomer, unassigned) [Example 1.125a, (3S,4S)-1-Cyclohexyl-4-{[3-(2,4-difluoro-phenyl)-isoxazole-5-carbonyl]-amino}-piperidine-3-carboxylic acid ((R)-1-pyridin-2-yl-ethyl)-amide or (3R,4R)-1-Cyclohexyl-4-{[3-(2,4-difluoro-phenyl)-isoxazole-5-carbonyl]-amino}-piperidine-3-carboxylic acid ((R)-1-pyridin-2-yl-ethyl)-amide]
IC50: 30 nM

CN(C)C(=O)[C@@H]1CN(C2CCCCC2)CC[C@H]1NC(=O)c1nnc(-c2ccc(F)cc2F)o1 (single isomer, unassigned) [Example 3.003b, (3R*,4R*)-1-Cyclohexyl-4-{[5-(2,4-difluoro-phenyl)-[1,3,4]oxadiazole-2-carbonyl]-amino}-piperidine-3-carboxylic acid dimethylamide]
IC50: 54 nM

O=C(N[C@H]1CCN(CC2CC2)C[C@@H]1C(=O)NC1(c2ccncn2)CC1)c1cc(-c2ccc(F)cc2F)on1 [Example 4.055]
IC50: 16 nM

CC(C)N(CCOCCO)C(=O)[C@@H]1CN(C2CCCCC2)CC[C@H]1NC(=O)c1cc(-c2ccc(F)cc2F)on1 (racemic) [Example 1.055, rac-(3R*,4R*)-1-Cyclohexyl-4-{[5-(2,4-difluoro-phenyl)-isoxazole-3-carbonyl]-amino}-piperidine-3-carboxylic acid [2-(2-hydroxy-ethoxy)-ethyl]-isopropyl-amide]
IC50: 232 nM

Cc1nc(NC(=O)[C@@H]2CN(C3CCCCC3)CC[C@H]2NC(=O)c2cc(-c3ccc(F)cc3F)on2)sc1C (racemic) [Example 1.065, rac-(3R*,4R*)-1-Cyclohexyl-4-{[5-(2,4-difluoro-phenyl)-isoxazole-3-carbonyl]-amino}-piperidine-3-carboxylic acid (4,5-dimethyl-thiazol-2-yl)-amide]
IC50: 567 nM

CC(C)CNC(=O)[C@@H]1CN(C2CCCCC2)CC[C@H]1NC(=O)c1cc(-c2ccc(F)cc2F)on1 (racemic) [Example 1.007, rac-(3R*,4R*)-1-Cyclohexyl-4-{[5-(2,4-difluoro-phenyl)-isoxazole-3-carbonyl]-amino}-piperidine-3-carboxylic acid isobutyl-amide]
IC50: 780 nM

O=C(N[C@H]1CCN(CC2CC2)C[C@@H]1C(=O)NC1(c2ccccn2)CC1)c1cn(-c2ccc(F)cc2F)nn1 [Example 2.091]
IC50: 62 nM

C[C@@H](NC(=O)[C@@H]1CN(C2CCCCC2)CC[C@H]1NC(=O)c1cc(-c2c(F)cc(F)cc2F)on1)c1ccccn1 (single isomer, unassigned) [Example 1.121b, (3R*,4R*)-1-Cyclohexyl-4-{[5-(2,4,6-trifluoro-phenyl)-isoxazole-3-carbonyl]-amino}-piperidine-3-carboxylic acid ((R)-1-pyridin-2-yl-ethyl)-amide]
IC50: 2 nM

O=C(N[C@H]1CCN(CC2CC2(F)F)C[C@@H]1C(=O)NC1(c2ncccn2)CC1)c1cc(-c2ccc(F)cc2F)on1 (some centres unmarked) [Example 2.084]
IC50: 8 nM

COCC(C)(C)NC(=O)[C@@H]1CN(CC2CC2)CC[C@H]1NC(=O)c1cc(-c2c(F)cc(F)cc2F)on1 (single isomer, unassigned) [Example 1.113b, (3R*,4R*)-1-Cyclopropylmethyl-4-{[5-(2,4,6-trifluoro-phenyl)-isoxazole-3-carbonyl]-amino}-piperidine-3-carboxylic acid (2-methoxy-1,1-dimethyl-ethyl)-amide]
IC50: 48 nM

CC(C1CC1)N1CC[C@@H](NC(=O)c2cc(-c3ccc(F)cc3F)on2)[C@H](C(=O)N(C)C)C1 (some centres unmarked) [Example 2.013]
IC50: 28 nM

CON(C)C(=O)[C@@H]1CN(CC2CC2)CC[C@H]1NC(=O)c1cc(-c2ccc(F)cc2F)on1 [Example 4.069]
IC50: 153 nM

C[C@@H](NC(=O)[C@@H]1CN(CC2CC2)CC[C@H]1NC(=O)c1cn(-c2ccc(F)cc2F)nn1)c1ccccn1 (relative stereo) [Example 1.119, (3R*,4R*)-1-Cyclopropylmethyl-4-{[1-(2,4-difluoro-phenyl)-1H-[1,2,3]triazole-4-carbonyl]-amino}-piperidine-3-carboxylic acid ((R)-1-pyridin-2-yl-ethyl)-amide]
IC50: 146 nM

C[C@@H]1CCC[C@H]1N1CC[C@@H](NC(=O)c2cc(-c3ccc(F)cc3F)no2)[C@H](C(=O)N(C)C)C1 [Example 1.15]
IC50: 155 nM

O=C(N[C@@H]1CCN(C2CCCCC2)C[C@H]1C(=O)NCc1c[nH]cn1)c1cc(-c2ccc(F)cc2F)on1 (racemic) [Example 1.043, rac-(3R*,4R*)-1-Cyclohexyl-4-{[5-(2,4-difluoro-phenyl)-isoxazole-3-carbonyl]-amino}-piperidine-3-carboxylic acid (1H-imidazol-4-ylmethyl)-amide]
IC50: 843 nM

CN(C)C(=O)[C@@H]1CN(C2CCCCC2)CC[C@H]1NC(=O)c1cc(-c2c(F)cccc2F)on1 (racemic) [Example 3.001, rac-(3R*,4R*)-1-Cyclohexyl-4-{[5-(2,6-difluoro-phenyl)-isoxazole-3-carbonyl]-amino}-piperidine-3-carboxylic acid dimethylamide]
IC50: 965 nM

Cc1ccc(-c2cc(C(=O)N[C@H]3CCN(CC4CC4)C[C@@H]3C(=O)NC3(c4ncccn4)CC3)no2)c(C)c1 [Example 7.005, (3S,4S)-1-Cyclopropylmethyl-4-{[5-(2,4-dimethyl-phenyl)-isoxazole-3-carbonyl]-amino}-piperidine-3-carboxylic acid (1-pyrimidin-2-yl-cyclopropyl)-amide]
IC50: 36 nM

O=C(N[C@H]1CCN(C2CCCC2)C[C@@H]1C(=O)NC1(c2ncccn2)CC1)c1cc(-c2c(F)cc(F)cc2F)on1 (single isomer, unassigned) [Example 1.176a, (3S,4S)-1-Cyclopentyl-4-{[5-(2,4,6-trifluoro-phenyl)-isoxazole-3-carbonyl]-amino}-piperidine-3-carboxylic acid (1-pyrimidin-2-yl-cyclopropyl)-amide or (3R,4R)-1-Cyclopentyl-4-{[5-(2,4,6-trifluoro-phenyl)-isoxazole-3-carbonyl]-amino}-piperidine-3-carboxylic acid (1-pyrimidin-2-yl-cyclopropyl)-amide]
IC50: 5 nM

CN(C)C(=O)[C@@H]1CN(C2CCCC2)CC[C@H]1NC(=O)c1ncc(-c2ccc(F)cc2F)o1 (racemic) [Example 3.017, rac-(3R*,4R*)-1-Cyclopentyl-4-{[5-(2,4-difluoro-phenyl)-oxazole-2-carbonyl]-amino}-piperidine-3-carboxylic acid dimethylamide]
IC50: 661 nM

CC(C)NC(=O)[C@@H]1CN(C2CCCCC2)CC[C@H]1NC(=O)c1cc(-c2ccc(F)cc2F)on1 (racemic) [Example 1.008, rac-(3R*,4R*)-1-Cyclohexyl-4-{[5-(2,4-difluoro-phenyl)-isoxazole-3-carbonyl]-amino}-piperidine-3-carboxylic acid isopropylamide]
IC50: 394 nM
